For 23 compounds, IC50 results are on record in patent US8791264B2 (Purdue Pharma L.P., priority 2006, dated 2014).

pIC50: −log10 of the molar value.

Experiment [1] addresses T1, N-type calcium channel (NTCC) (Homo sapiens, UniProt Q00975).
T1 construct: host or cells: IMR32 cells differentiated with dibutyryl cAMP and bromodeoxyuridine
In words: FLIPR calcium mobilization assay for N-type calcium channel. In kind it is cell-based. The conditions noted are these: calcium mobilization in vitro assay; differentiated IMR32 cells. The method, boiled down:
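Differentiated IMR32 cells (8 days, dibutyryl cAMP and BrdU) loaded with 3 μM Fluo-4 during 90 mM KCl pre-stimulation, with compound at about 846 pM to 17 μM plus 5 μM nitrendipine. After washes in compound, FLIPR read basal fluorescence 315 s, then 45 s after KCl addition (final 90 mM).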
Background: A change in cytosolic calcium serves as a functional read-out for many receptors and channels.

Experiment [2] deals with T2, recombinant rat L-type calcium channel (LTCC) subunits (α1c, α2δ, and β1) (Rattus norvegicus, UniProt P22002).
T2 construct: expressed in transfected cells
In words: FLIPR calcium mobilization assay for L-type calcium channel. Format: cell-based. The conditions noted are these: calcium mobilization in vitro assay; HEK293 cells expressing rat LTCC. The procedure: Recombinant human embryonal kidney cells (HEK293, ATCC) stably transfected with either N-type calcium channel (NTCC) subunits (α1b, α2δ, and ⊖3) or L-type calcium channel (LTCC) subunits (α1, α2δ, and β1) were routinely cultured in growth medium consisting of Dulbecco's Modified Eagles Medium containing 10% FBS, 100 U/mL penicillin, 100 μg/mL streptomycin, 4 mM L-glutamine, 500 μg/mL geneticin (G418), 20 μg/mL Blasticidin S (InVivogen, San Diego, Calif.) and 500 μg/mL zeocin (InVivogen).
FLIPR Calcium Mobilization Assay for L-Type Calcium Channel.
One day prior to performing this assay, HEK293 cells stably expressing recombinant rat L-type calcium channel (LTCC) subunits (α1c, α2δ, and β1) were trypsinized, then seeded on poly-D-lysine-coated 96-well clear-bottom black plates (Becton Dickinson, Franklin Lakes, N.J.) at 75,000 cells/well. On the day of the assay, the plates were washed with LTCC wash buffer (127 mM NaCl, 2 mM MgCl2, 700 μM NaH2PO4, 5 mM CaCl2, 5 mM NaHCO3, 8 mM HEPES, 10 mM glucose, pH 7.4), then loaded with 0.1 mL of LTCC wash buffer containing Fluo-4 (3 μM final concentration, Molecular Probes, Eugene, Oreg.). After 1 hour, the cells were washed with 0.1 mL LTCC wash buffer and resuspended in 0.05 mL LTCC assay buffer (same composition as LTCC wash buffer). Plates were then transferred to a FLIPR^96 for assay. The FLIPR measured basal Fluo-4 fluorescence for 15 seconds, then is added 0.05 mL of each compound tested diluted in LTCC assay buffer at final concentrations ranging from about 846 pM to about 17 μM. Fluo-4 fluorescence was then measured for 5 minutes. 0.1 mL KCl agonist dissolved in LTCC assay buffer was then added to the cells to produce a final concentration of 90 mM KCl, and fluorescence was measured for another 45 seconds. Data were collected over the entire time course and analyzed using Excel, Graph Pad Prism, or an in-house regression analysis software.

T2 sequence (P22002 whole entry): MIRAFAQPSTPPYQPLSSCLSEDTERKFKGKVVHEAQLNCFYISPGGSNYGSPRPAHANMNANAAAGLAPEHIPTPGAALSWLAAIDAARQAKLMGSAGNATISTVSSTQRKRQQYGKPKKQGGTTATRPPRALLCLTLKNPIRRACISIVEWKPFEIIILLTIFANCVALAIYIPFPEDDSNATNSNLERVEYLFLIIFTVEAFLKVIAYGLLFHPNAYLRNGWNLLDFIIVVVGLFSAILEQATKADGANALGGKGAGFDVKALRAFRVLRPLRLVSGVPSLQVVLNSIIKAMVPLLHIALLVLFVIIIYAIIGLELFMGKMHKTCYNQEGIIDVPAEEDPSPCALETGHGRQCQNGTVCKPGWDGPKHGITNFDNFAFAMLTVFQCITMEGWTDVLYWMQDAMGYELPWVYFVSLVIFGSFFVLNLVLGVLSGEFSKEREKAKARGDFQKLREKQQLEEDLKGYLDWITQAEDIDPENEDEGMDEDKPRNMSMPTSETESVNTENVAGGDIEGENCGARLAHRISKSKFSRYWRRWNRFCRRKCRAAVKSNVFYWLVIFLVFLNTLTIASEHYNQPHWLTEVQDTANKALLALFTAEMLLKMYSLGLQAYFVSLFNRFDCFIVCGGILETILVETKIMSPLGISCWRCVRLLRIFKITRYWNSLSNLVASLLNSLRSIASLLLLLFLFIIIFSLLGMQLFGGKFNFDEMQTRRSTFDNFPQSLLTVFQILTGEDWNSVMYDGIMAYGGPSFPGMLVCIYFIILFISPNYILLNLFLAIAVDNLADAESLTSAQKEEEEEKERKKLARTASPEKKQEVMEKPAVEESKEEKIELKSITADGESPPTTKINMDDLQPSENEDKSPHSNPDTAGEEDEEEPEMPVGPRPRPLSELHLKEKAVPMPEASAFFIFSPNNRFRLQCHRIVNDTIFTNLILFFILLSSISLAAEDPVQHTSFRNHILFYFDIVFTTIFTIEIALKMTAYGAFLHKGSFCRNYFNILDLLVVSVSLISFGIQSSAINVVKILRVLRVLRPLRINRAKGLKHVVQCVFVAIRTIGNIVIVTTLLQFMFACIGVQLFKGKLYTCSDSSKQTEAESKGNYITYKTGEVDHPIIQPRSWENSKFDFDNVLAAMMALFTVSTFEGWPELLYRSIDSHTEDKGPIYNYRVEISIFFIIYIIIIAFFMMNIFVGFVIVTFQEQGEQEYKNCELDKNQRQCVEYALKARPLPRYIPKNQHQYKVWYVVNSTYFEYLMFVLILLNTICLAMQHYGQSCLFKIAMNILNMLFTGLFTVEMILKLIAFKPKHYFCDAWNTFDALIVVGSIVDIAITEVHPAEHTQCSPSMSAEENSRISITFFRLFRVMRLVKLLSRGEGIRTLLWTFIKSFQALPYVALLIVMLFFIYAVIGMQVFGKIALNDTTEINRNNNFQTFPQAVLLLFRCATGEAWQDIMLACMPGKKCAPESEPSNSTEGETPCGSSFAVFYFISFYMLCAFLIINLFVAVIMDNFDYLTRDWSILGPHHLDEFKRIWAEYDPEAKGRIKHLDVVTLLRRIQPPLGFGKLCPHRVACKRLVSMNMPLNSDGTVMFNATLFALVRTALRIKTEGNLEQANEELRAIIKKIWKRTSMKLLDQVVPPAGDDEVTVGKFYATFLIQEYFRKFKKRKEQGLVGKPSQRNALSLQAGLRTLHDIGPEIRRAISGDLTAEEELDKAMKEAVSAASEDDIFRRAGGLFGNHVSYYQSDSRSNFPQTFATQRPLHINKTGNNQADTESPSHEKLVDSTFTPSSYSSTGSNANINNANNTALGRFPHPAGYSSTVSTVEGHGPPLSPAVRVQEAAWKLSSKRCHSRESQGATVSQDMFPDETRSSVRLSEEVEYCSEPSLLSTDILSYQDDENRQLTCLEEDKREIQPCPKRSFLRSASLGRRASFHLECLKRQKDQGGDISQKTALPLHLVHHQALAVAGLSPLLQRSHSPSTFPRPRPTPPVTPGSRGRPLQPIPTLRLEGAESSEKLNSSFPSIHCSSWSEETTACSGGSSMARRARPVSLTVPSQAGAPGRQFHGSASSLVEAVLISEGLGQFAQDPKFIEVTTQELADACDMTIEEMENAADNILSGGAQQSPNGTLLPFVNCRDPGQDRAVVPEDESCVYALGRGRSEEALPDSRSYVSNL
T2 sequence (P54290 25-944 partner limits assumed): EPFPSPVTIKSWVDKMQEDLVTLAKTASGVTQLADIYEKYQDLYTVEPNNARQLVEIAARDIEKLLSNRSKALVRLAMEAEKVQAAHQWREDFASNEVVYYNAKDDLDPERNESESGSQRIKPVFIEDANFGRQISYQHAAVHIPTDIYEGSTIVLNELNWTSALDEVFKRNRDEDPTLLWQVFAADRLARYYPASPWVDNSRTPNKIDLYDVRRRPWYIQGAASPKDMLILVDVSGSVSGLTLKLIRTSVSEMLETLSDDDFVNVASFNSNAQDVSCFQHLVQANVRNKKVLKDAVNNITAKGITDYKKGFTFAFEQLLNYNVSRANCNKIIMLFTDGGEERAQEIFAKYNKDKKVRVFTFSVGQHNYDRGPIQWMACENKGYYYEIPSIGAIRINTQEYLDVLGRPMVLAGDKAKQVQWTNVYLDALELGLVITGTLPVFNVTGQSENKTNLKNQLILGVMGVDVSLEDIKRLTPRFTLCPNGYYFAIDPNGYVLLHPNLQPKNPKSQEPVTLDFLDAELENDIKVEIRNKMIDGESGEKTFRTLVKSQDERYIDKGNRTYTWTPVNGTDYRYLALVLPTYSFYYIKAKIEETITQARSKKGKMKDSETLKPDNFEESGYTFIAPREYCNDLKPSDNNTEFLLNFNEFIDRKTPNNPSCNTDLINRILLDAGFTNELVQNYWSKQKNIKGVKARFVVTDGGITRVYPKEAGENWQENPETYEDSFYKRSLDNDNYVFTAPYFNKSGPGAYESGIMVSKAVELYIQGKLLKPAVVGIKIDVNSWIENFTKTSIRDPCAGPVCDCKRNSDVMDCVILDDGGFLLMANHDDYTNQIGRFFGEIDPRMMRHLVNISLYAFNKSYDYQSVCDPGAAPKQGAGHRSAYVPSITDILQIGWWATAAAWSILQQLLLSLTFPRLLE
T2 sequence (P54290 945-1091 partner limits assumed): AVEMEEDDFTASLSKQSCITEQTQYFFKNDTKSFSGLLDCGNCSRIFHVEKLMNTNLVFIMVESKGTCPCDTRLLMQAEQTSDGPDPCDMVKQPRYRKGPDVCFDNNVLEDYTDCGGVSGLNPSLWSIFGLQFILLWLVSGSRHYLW
T2 sequence (P54283 whole entry partner): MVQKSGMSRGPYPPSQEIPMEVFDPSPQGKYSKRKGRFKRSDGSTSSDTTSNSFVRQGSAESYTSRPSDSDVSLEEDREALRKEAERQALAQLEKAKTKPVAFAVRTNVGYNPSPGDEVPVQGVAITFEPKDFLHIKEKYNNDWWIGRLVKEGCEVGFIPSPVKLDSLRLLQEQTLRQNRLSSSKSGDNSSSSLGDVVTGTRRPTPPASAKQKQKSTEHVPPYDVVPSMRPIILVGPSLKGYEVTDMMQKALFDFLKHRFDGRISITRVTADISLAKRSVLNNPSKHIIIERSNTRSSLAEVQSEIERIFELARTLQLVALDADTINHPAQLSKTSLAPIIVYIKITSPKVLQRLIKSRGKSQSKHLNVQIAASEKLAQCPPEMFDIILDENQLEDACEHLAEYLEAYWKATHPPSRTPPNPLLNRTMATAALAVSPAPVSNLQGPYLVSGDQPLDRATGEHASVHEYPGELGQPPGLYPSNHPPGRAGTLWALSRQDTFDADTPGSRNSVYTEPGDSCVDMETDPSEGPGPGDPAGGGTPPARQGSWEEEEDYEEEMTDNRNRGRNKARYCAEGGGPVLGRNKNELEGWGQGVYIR

In the case of `CC(C)N(C1CCN(CC(=O)N(C)c2ccc(F)cc2)CC1)S(=O)(=O)c1cccc(C(F)(F)F)c1` [Compound 42j, N-(4-Fluorophenyl)-2-{4-[isopropyl-(3-trifluoromethyl-benzenesulfonyl)amino]-piperidin-1-yl}-N-methyl-acetamide], the pIC50 in experiment [1] was 6.48; in experiment [2] it was below 4.70.
For `CC(C)N(C1CCN(CC(=O)NCc2ccc(F)cc2)CC1)S(=O)(=O)c1cccc(C(F)(F)F)c1` [Compound 42k, N-(4-Fluorobenzyl)-2-{4-[isopropyl-(3-trifluoromethylbenzenesulfonyl)amino]-piperidin-1-yl}-acetamide], the negative-log IC50 (pIC50) in experiment [1] was 6.48; in experiment [2] it was 5.38.
For the compound `CC(C)N(C1CCN(CC(=O)Nc2ccc(OC(F)(F)F)cc2)CC1)S(=O)(=O)c1cccc(C(F)(F)F)c1` [Compound 42l, 2-{4-[Isopropyl-(3-trifluoromethylbenzenesulfonyl)amino]-piperidin-1-yl}-N-(4-trifluoromethoxyphenyl)-acetamide], the pIC50 in experiment [1] was 6.60; in experiment [2] it was below 4.70.
Take `CC(C)N(C1CCN(CC(=O)Nc2ccc(C(F)(F)F)cn2)CC1)S(=O)(=O)c1cccc(C(F)(F)F)c1` [Compound 42m, 2-{4-[Isopropyl-(3-trifluoromethylbenzenesulfonyl)amino]-piperidin-1-yl}-N-(5-trifluoromethylpyridin-2-yl)-acetamide]: the pIC50 was 6.39 in experiment [1] and below 4.70 in experiment [2].
As to `CC(C)N(C1CCN(CC(=O)Nc2ccc(F)cc2)CC1)S(=O)(=O)c1cccc(C(F)(F)F)c1` [Compound 44, N-(4-Fluorophenyl)-2-{4-[isopropyl-(3-trifluoromethylbenzenesulfonyl)amino]-piperidin-1-yl}-acetamide], the pIC50 in experiment [1] was 6.55; in experiment [2] it was 5.57.
`O=C(CN1CCC(N(C2CC2)S(=O)(=O)c2cccc(Cl)c2)CC1)Nc1ccc(F)cc1` [Compound 50, 2-{4-[(3-Chlorobenzenesulfonyl)cyclopropylamino]-piperidin-1-yl}-N-(4-fluorophenyl)acetamide]: the pIC50 is 6.08 in experiment [1] and 4.70 to 5.00 in experiment [2].
The like results for `CN(C1CCN(CC(=O)Nc2ccc(F)cc2)CC1)S(=O)(=O)c1cccc(C(F)(F)F)c1` [Compound 51, N-(4-Fluorophenyl)-2-{4-[methyl-(3-trifluoromethylbenzenesulfonyl)-amino]-piperidin-1-yl}-acetamide] were, in that order, 6.15 and below 4.70.
Take `CCOC(=O)c1ccc(NC(=O)CN2CCC(N(C3CC3)S(=O)(=O)c3cccc(C(F)(F)F)c3)CC2)cc1` [Compound 54, 4-(2-{4-[Cyclopropyl-(3-trifluoromethylbenzenesulfonyl)amino]-piperidin-1-yl}-acetylamino)benzoic acid ethyl ester]: the negative-log IC50 (pIC50) was 6.27 in experiment [1] and below 4.70 in experiment [2].
Taken in the same sequence, the figures for `O=C(CN1CCC(N(C2CC2)S(=O)(=O)c2cccc(C(F)(F)F)c2)CC1)Nc1ccc(C(F)(F)F)cc1` [Compound 55, 2-{4-[Cyclopropyl-(3-trifluoromethylbenzenesulfonyl)amino]-piperidin-1-yl}-N-(4-trifluoromethylphenyl)acetamide] were 6.14 and below 4.70.
As to `CC(C)(C)c1ccc(NC(=O)CN2CCC(N(C3CC3)S(=O)(=O)c3cccc(C(F)(F)F)c3)CC2)cc1` [Compound 56], the negative-log IC50 (pIC50) in experiment [1] was 6.12; in experiment [2] it was below 4.70.
In the case of `O=C(CN1CCC(N(C2CC2)S(=O)(=O)c2cccc(C(F)(F)F)c2)CC1)Nc1ccccc1` [Compound 57, 2-{4-[Cyclopropyl-(3-trifluoromethylbenzenesulfonyl)-amino]-piperidin-1-yl}-N-phenyl-acetamide], the negative logarithm of the IC50 (pIC50) was 6.28 in experiment [1] and below 4.70 in experiment [2].
The like results for `Cc1cccc(C)c1NC(=O)CN1CCC(N(C2CC2)S(=O)(=O)c2cccc(C(F)(F)F)c2)CC1` [Compound 58, 2-{4-[Cyclopropyl-(3-trifluoromethylbenzenesulfonyl)-amino]-piperidin-1-yl}-N-(2,6-dimethylphenyl)acetamide] were, in that order, 6.51 and 5.23.
The like results for `CC(C)c1ccc(NC(=O)CN2CCC(N(C3CC3)S(=O)(=O)c3cccc(C(F)(F)F)c3)CC2)cc1` [Compound 59, 2-{4-[Cyclopropyl-(3-trifluoromethylbenzenesulfonyl)-amino]-piperidin-1-yl}-N-(4-isopropylphenyl)acetamide] were, in that order, 6.38 and 4.70 to 5.00.
The like results for `CN(C1CCN(CC(=O)Nc2ccc(C(F)(F)F)cc2)CC1)S(=O)(=O)c1cccc(C(F)(F)F)c1` [Compound 60, 2-{4-[Methyl-(3-trifluoromethylbenzenesulfonyl)-amino]-piperidin-1-yl}-N-(4-trifluoromethylphenyl)acetamide] were, in that order, 6.00 and below 4.70.
For the compound `O=C(CN1CCC(N(C2CC2)S(=O)(=O)c2cccc(C(F)(F)F)c2)CC1)Nc1cc(C(F)(F)F)cc(C(F)(F)F)c1` [Compound 63, N-(3,5-Bis-trifluoromethylphenyl)-2-{4-[cyclopropyl-(3-trifluoromethylbenzenesulfonyl)amino]-piperidin-1-yl}-acetamide], the negative logarithm of the IC50 (pIC50) was 6.18 in experiment [1] and below 4.70 in experiment [2].
The like results for `O=C(CN1CCC(N(C2CC2)S(=O)(=O)c2cccc(C(F)(F)F)c2)CC1)NCc1cc(C(F)(F)F)cc(C(F)(F)F)c1` [Compound 64, N-(3,5-Bis-trifluoromethylbenzyl)-2-{4-[cyclopropyl-(3-trifluoromethylbenzenesulfonyl)amino]-piperidin-1-yl}-acetamide] were, in that order, 6.66 and below 4.70.
Consider `CCOc1cc(F)ccc1NC(=O)CN1CCC(N(C2CC2)S(=O)(=O)c2cccc(C(F)(F)F)c2)CC1` [Compound 70, 2-{4-[Cyclopropyl-(3-trifluoromethylbenzenesulfonyl)amino]-piperidin-1-yl}-N-(2-ethoxy-4-fluorophenyl)-acetamide], for which the pIC50 in experiment [1] was 6.04; in experiment [2], below 4.70.
With `O=C(CN1CCC(N(C2CC2)S(=O)(=O)c2cccc(C(F)(F)F)c2)CC1)Nc1ccc(F)c(C(F)(F)F)c1` [Compound 71, 2-{4-[Cyclopropyl-(3-trifluoromethylbenzenesulfonyl)amino]-piperidin-1-yl}-N-(4-fluoro-3-trifluoromethylphenyl)-acetamide], the pIC50 in experiment [1] was 6.21; in experiment [2], below 4.70.
Taken in the same sequence, the figures for `O=C(CN1CCC(N(C2CC2)S(=O)(=O)c2cccc(C(F)(F)F)c2)CC1)Nc1cc(F)cc(C(F)(F)F)c1` [Compound 73, 2-{4-[Cyclopropyl-(3-trifluoromethylbenzenesulfonyl)amino]-piperidin-1-yl}-N-(3-fluoro-5-trifluoromethylphenyl)-acetamide] were 6.21 and below 4.70.
Regarding `O=C(CN1CCC(N(C2CC2)S(=O)(=O)c2cccc(C(F)(F)F)c2)CC1)Nc1cc(F)cc(F)c1` [Compound 74, 2-{4-[Cyclopropyl-(3-trifluoromethylbenzenesulfonyl)amino]-piperidin-1-yl}-N-(3,5-difluorophenyl)-acetamide], the negative logarithm of the IC50 (pIC50) in experiment [1] is 6.43; in experiment [2], 5.18.
Regarding `O=C(CN1CCC(N(C2CC2)S(=O)(=O)c2cccc(C(F)(F)F)c2)CC1)Nc1ccc(C(F)(F)F)cc1F` [Compound 75, 2-{4-[Cyclopropyl-(3-trifluoromethylbenzenesulfonyl)amino]-piperidin-1-yl}-N-(2-fluoro-4-trifluoromethylphenyl)-acetamide], the pIC50 in experiment [1] was 6.11; in experiment [2] it was below 4.70.
In the case of `O=C(CN1CCC(N(C2CC2)S(=O)(=O)c2cccc(C(F)(F)F)c2)CC1)Nc1cncc(F)c1` [Compound 78, 2-{4-[Cyclopropyl-(3-trifluoromethylbenzenesulfonyl)amino]-piperidin-1-yl}-N-(5-fluoro-pyridin-3-yl)-acetamide], the pIC50 in experiment [1] was 6.21; in experiment [2], below 4.70.
The like results for `O=C(CN1CCC(N(C2CC2)S(=O)(=O)c2cccc(C(F)(F)F)c2)CC1)Nc1cc(Cl)cc(Cl)c1` [Compound 79, 2-{4-[Cyclopropyl-(3-trifluoromethylbenzenesulfonyl)amino]-piperidin-1-yl}-N-(3,5-dichlorophenyl)-acetamide] were, in that order, 6.07 and below 4.70.

One may read the pIC50 as −log10 of the IC50, conventionally taken in molar units.
